43 compounds from US9018383B2, “Acylamino-substituted cyclic carboxylic acid derivatives and their use as pharmaceuticals” (Sanofi, priority 2009, dated 2015) can be followed below.

Where only a bound is given, the exact number is not on record here.

Chain of human Edg-2 receptor (Q92633 whole entry): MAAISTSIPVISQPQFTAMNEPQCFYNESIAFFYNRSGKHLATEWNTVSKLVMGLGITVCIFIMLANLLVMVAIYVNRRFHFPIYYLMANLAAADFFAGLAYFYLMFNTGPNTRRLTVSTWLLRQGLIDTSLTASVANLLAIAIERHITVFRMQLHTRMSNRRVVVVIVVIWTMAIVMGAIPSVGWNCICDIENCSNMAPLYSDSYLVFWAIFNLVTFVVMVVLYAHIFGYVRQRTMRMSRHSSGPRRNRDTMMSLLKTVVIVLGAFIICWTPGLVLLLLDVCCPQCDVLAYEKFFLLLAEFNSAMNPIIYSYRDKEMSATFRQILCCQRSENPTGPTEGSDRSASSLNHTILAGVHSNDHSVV

In this assay the target is human Edg-2 receptor (Homo sapiens, UniProt Q92633). In words: Determination of Edg-2 receptor inhibition by FLIPR measurements (LPA-mediated calcium liberation). The class given is cell-based. To be noted: CHO cells overexpressing human Edg-2 receptor, LPA 100 nM, fluo-4 calcium fluorescence; read-out: Inhibitory concentrations IC50 for inhibition of the Edg-2 receptor. The method in brief:
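IC50 was derived from % inhibition of the baseline-corrected peak fluo-4 signal relative to DMSO, measured in triplicate. Compound was added ~5 min before 100 nM LPA (18:1) to human Edg-2–expressing CHO cells in pH 7.5 HBSS buffer with probenecid and HEPES, and fluorescence was monitored ~3 min.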
Regarding `CCc1ncc(C(=O)N[C@]2(C(=O)O)CC[C@@H](C)CC2)cc1OCCc1cccc(Cl)c1` [Example 436, trans-1-({5-[2-(3-Chloro-phenyl)-ethoxy]-6-ethyl-pyridine-3-carbonyl}-amino)-4-methyl-cyclohexanecarboxylic acid], the IC50 lay in the range of 100 to 1000 nM.
With `CC[C@H]1CC[C@](NC(=O)c2cnc(OCCO)c(-c3cc(F)cc(F)c3)c2)(C(=O)O)CC1` [Example 415] the figure was below 100 nM; with `COc1ncc(C(=O)N[C@]2(C(=O)O)CC[C@H](C)CC2)cc1-c1cccc(C(F)(F)F)c1` [Example 317], below 100 nM; with `CC[C@H]1CC[C@@](NC(=O)c2cnc(OC)c(-c3cccc(OC(F)(F)F)c3)c2)(C(=O)O)CC1` [Example 306], below 100 nM.
The value for `CC[C@H]1CC[C@](NC(=O)c2ccc(C(F)(F)F)c(-c3ccc(OC)c(Cl)c3)c2)(C(=O)O)CC1` [Example 125, cis-1-[(3′-Chloro-4′-methoxy-6-trifluoromethyl-biphenyl-3-carbonyl)-amino]-4-ethyl-cyclohexanecarboxylic acid] was below 100 nM.
`COc1ccc(C(=O)N[C@]2(C(=O)O)CC[C@H](C(F)(F)F)CC2)cc1OCCc1cccc(C2COC2)c1` [Example 460, 1-{4-Methoxy-3-[2-(3-oxetan-3-yl-phenyl)-ethoxy]-benzoylamino}-4-trifluoromethyl-cyclohexanecarboxylic acid]: the IC50 lay in the range of 100 to 1000 nM.
As to `COc1ccc(C(=O)NC2(C(=O)O)CCC2)cc1OCCc1cccc(C)c1` [Example 34], the IC50 is 1000 to 30000 nM.
Consider `COc1ncc(C(=O)N[C@]2(C(=O)O)CC[C@@H](C)CC2)cc1OCCc1cccc(C)c1` [Example 80, trans-1-{[6-Methoxy-5-(2-m-tolyl-ethoxy)-pyridine-3-carbonyl]-amino}-4-methyl-cyclohexanecarboxylic acid], for which the IC50 is below 100 nM.
For `COc1ncc(C(=O)N[C@]2(C(=O)O)CC[C@H](C(F)(F)F)CC2)cc1-c1cc(Cl)cc(C(F)(F)F)c1` [Example 380], the IC50 was below 100 nM.
Take `COc1ccc(C(=O)NC2(C(=O)O)CC3CCC(C3)C2)cc1OCCc1cccc(C)c1` (stereo not shown) [Example 31]: the IC50 was below 100 nM.
The value for `COc1ccc(C(=O)NC2(C(=O)O)CCCCCC2)cc1OCCc1cccc(C(F)(F)F)c1` [Example 363] was 100 to 1000 nM; that for `CC[C@H]1CC[C@@](NC(=O)c2ccc(OC)c(-c3cccc(OC(F)(F)F)c3)c2)(C(=O)O)CC1` [Example 328] was 100 to 1000 nM.
As for `COc1ccc(C(=O)NC2(C(=O)O)CCCCCC2)cc1-c1cccc(NS(=O)(=O)N(C)C)c1` [Example 103], the IC50 lay within 100 to 1000 nM.
Turning to `Cc1cccc(CCOc2cc(C(=O)N[C@]3(C(=O)O)CC[C@H](C)CC3)ccc2OCCO)c1` [Example 123, cis-1-[4-(2-Hydroxy-ethoxy)-3-(2-m-tolyl-ethoxy)-benzoylamino]-4-methyl-cyclohexanecarboxylic acid], the IC50 was below 100 nM.
For the compound `Cc1cccc(CCOc2cc(C(=O)NC3(C(=O)O)CCCCCC3)ccc2Cl)c1` [Example 64, 1-[4-Chloro-3-(2-m-tolyl-ethoxy)-benzoylamino]-cycloheptanecarboxylic acid], the IC50 lay within 100 to 1000 nM.
The value for `COc1ncc(C(=O)NC2(C(=O)O)CCCCCC2)cc1OCCc1cccc(C)c1` [Example 77, 1-{[6-Methoxy-5-(2-m-tolyl-ethoxy)-pyridine-3-carbonyl]-amino}-cycloheptanecarboxylic acid] was below 100 nM; that for `CC[C@H]1CC[C@](NC(=O)c2cnc(OC)c(-c3cccc(Cl)c3Cl)c2)(C(=O)O)CC1` [Example 300] was below 100 nM.
On to `CC[C@H]1CC[C@](NC(=O)c2cnc(OC)c(-c3cccc(C(F)(F)F)c3F)c2)(C(=O)O)CC1` [Example 304], for which the IC50 is below 100 nM.
On to `CC[C@H]1CC[C@@](NC(=O)c2cc(OCCc3cccc(Cl)c3)c(C(C)=O)s2)(C(=O)O)CC1` [Example 439, trans-1-({5-Acetyl-4-[2-(3-chloro-phenyl)-ethoxy]-thiophene-2-carbonyl}-amino)-4-ethyl-cyclohexanecarboxylic acid], for which the IC50 was in the range of 100 to 1000 nM.
As for `C[C@H]1CC[C@](NC(=O)c2ccc(OCCO)c(OCCc3cccc(Cl)c3)c2)(C(=O)O)CC1` [Example 119, cis-1-[3-[2-(3-Chloro-phenyl)-ethoxy]-4-(2-hydroxy-ethoxy)-benzoylamino]-4-methyl-cyclohexanecarboxylic acid], the IC50 was below 100 nM.
In the case of `CC[C@H]1CC[C@](NC(=O)c2cc(F)c(OCCO)c(-c3ccc(OC)c(Cl)c3)c2)(C(=O)O)CC1` [Example 381], the IC50 was below 100 nM.
Take `COc1ccc(C(=O)NC2(C(=O)O)CCC(=O)CC2)cc1OCCc1cccc(C)c1` [Example 55, 1-[4-Methoxy-3-(2-m-tolyl-ethoxy)-benzoylamino]-4-oxo-cyclohexanecarboxylic acid]: the IC50 lay within 100 to 1000 nM.
Regarding `COc1ncc(C(=O)N[C@]2(C(=O)O)CC[C@H](C)CC2)cc1OCCc1ccccc1` [Example 400, cis-1-{[6-Methoxy-5-(2-phenyl-ethoxy)-pyridine-3-carbonyl]-amino}-4-methyl-cyclohexanecarboxylic acid], the IC50 was below 100 nM.
On to `COc1ccc(C(=O)NC2(C(=O)O)CCCCCC2)cc1OCCc1cccc(C)c1` [Example 2, 1-[4-Methoxy-3-(2-m-tolyl-ethoxy)-benzoylamino]-cycloheptanecarboxylic acid], for which the IC50 is below 100 nM.
Take `COc1ccc(C(=O)NC2(C(=O)O)CCC(C)(C)CC2)cc1OCCc1cccc(C)c1` [Example 45]: the IC50 was in the range of 100 to 1000 nM.
Regarding `CCC1CCC(NC(=O)c2ccc(OC)c(OCCc3cccc(C)c3)c2)(C(=O)O)CC1` (stereo not shown) [Example 50], the IC50 was below 100 nM.
Consider `COc1ncc(C(=O)NC2(C(=O)O)CCCCCC2)cc1OCCc1ccccc1` [Example 88, 1-{[5-(2-Phenyl-ethoxy)-6-methoxy-pyridine-3-carbonyl]-amino}-cycloheptanecarboxylic acid], for which the IC50 is below 100 nM.
Regarding `COc1ccc(C(=O)N[C@]2(C(=O)O)CC[C@@H](C)CC2)cc1OCCc1cccc(C)c1` [Example 43, trans-1-[4-Methoxy-3-(2-m-tolyl-ethoxy)-benzoylamino]-4-methyl-cyclohexanecarboxylic acid], the IC50 is below 100 nM.
With `CC[C@H]1CC[C@](NC(=O)c2cnc(OC)c(-c3cc(F)cc(F)c3)c2)(C(=O)O)CC1` [Example 360, cis-1-{[5-(3,5-Difluoro-phenyl)-6-methoxy-pyridine-3-carbonyl]-amino}-4-ethyl-cyclohexanecarboxylic acid] the figure was below 100 nM; with `COc1ccc(C(=O)NC2(C(=O)O)CCCCCC2)cc1OCCc1cc(F)ccc1F` [Example 20], below 100 nM; with `CCc1ccc(C(=O)NC2(C(=O)O)CCCCCC2)cc1OCCc1cccc(C)c1` [Example 62, 1-[4-Ethyl-3-(2-m-tolyl-ethoxy)-benzoylamino]-cycloheptanecarboxylic acid], below 100 nM.
For the compound `COc1ccc(C(=O)NC2(C(=O)O)CCSCC2)cc1OCCc1cccc(C)c1` [Example 36], the IC50 lay in the range of 100 to 1000 nM.
The value for `CC[C@H]1CC[C@](NC(=O)c2cnc(OC)c(OCCc3cccc(Cl)c3)c2)(C(=O)O)CC1` [Example 357, cis-1-({5-[2-(3-Chloro-phenyl)-ethoxy]-6-methoxy-pyridine-3-carbonyl}-amino)-4-ethyl-cyclohexanecarboxylic acid] was below 100 nM; that for `CC[C@H]1CC[C@@](NC(=O)c2ccc(OCCO)c(-c3cccc(C(F)(F)F)c3)c2)(C(=O)O)CC1` [Example 386, trans-4-Ethyl-1-{[6-(2-hydroxy-ethoxy)-3′-trifluoromethyl-biphenyl-3-carbonyl]-amino}-cyclohexanecarboxylic acid] was below 100 nM; that for `COc1ncc(C(=O)NC2(C(=O)O)CCCCCC2)cc1OCCc1cc(C)ccc1C` [Example 87, 1-({5-[2-(2,5-Dimethyl-phenyl)-ethoxy]-6-methoxy-pyridine-3-carbonyl}-amino)-cycloheptanecarboxylic acid] was 1000 to 30000 nM.
In the case of `COc1ncc(C(=O)N[C@]2(C(=O)O)CC[C@H](C)CC2)cc1-c1cccc(OC(F)(F)F)c1` [Example 307], the IC50 is below 100 nM.
With `COc1ccc(C(=O)NC2(C(=O)O)CCC(CF)CC2)cc1OCCc1cccc(C)c1` (stereo not shown) [Example 59, 4-Fluoromethyl-1-[4-methoxy-3-(2-m-tolyl-ethoxy)-benzoylamino]-cyclohexanecarboxylic acid] the figure was below 100 nM; with `CC[C@H]1CC[C@](NC(=O)c2cncc(-c3ccc(OC)c(Cl)c3)c2)(C(=O)O)CC1` [Example 453, 1-{[5-(3-Chloro-4-methoxy-phenyl)-pyridine-3-carbonyl]-amino}-4-ethyl-cyclohexanecarboxylic acid], below 100 nM.
The value for `COc1c(F)cc(C(=O)NC2(C(=O)O)CCCCCC2)cc1OCCc1cccc(CCO)c1` [Example 393, 1-(3-Fluoro-5-{2-[3-(2-hydroxy-ethyl)-phenyl]-ethoxy}-4-methoxy-benzoylamino)-cycloheptanecarboxylic acid] was below 100 nM; that for `CC[C@H]1CC[C@@](NC(=O)c2cnc(OC)c(-c3cccc(C(F)(F)F)c3)c2)(C(=O)O)CC1` [Example 316] was below 100 nM.
The value for `CC[C@H]1CC[C@](NC(=O)c2cnc(OC)c(-c3cc(Cl)cc(C(F)(F)F)c3)c2)(C(=O)O)CC1` [Example 302] was below 100 nM; that for `CC[C@H]1CC[C@](NC(=O)c2cnc(OCCO)c(-c3ccc(OC)c(Cl)c3)c2)(C(=O)O)CC1` [Example 417] was below 100 nM.
As to `COc1ncc(C(=O)N[C@]2(C(=O)O)CC[C@H](C(F)(F)F)CC2)cc1-c1cccc(C(F)(F)F)c1F` [Example 377], the IC50 was below 100 nM.
